Paper PMC10781839 (European Journal of Drug Metabolism and Pharmacokinetics, 2023)
“Also recorded” adds a separate entry of the source. Read-outs that look alike come from different tables or passages of the source.

Experiments:
CYP2D6 [1] = settings: single 400 mg HCQ, short term, yohimbine probe
CYP2D6 [2] = settings: cited from earlier work
[3] = cited from earlier work
CYP3A4 = settings: cited from earlier work; for CYP3A4 inhibition in vitro: HCQ metabolites
CYP2D6 [4] = settings: cited from earlier work; remark: listed apart in the source
CYP3A = settings: for Midazolam/1-OH-midazolam AUC2–4 h ratio: pantoprazole group
recombinant human CYP3A4 = recombinant human CYP3A4 (Homo sapiens, UniProt P08684); assay: P450-Glo CYP3A4 Assay, inhibition by pantoprazole; format: in vitro ADME; settings: pantoprazole 100 µM, in vitro
[5] = cited from earlier work; for Peak serum concentration: pantoprazole 40 mg
[6] = cited from earlier work; remark: listed apart in the source
[7] = all participants, after HCQ intake (± pantoprazole)
[8] = pantoprazole subgroup, HCQ plus pantoprazole
[9] = after 8-day course of 400 mg HCQ twice daily, seven healthy volunteers

Sequence of recombinant human CYP3A4 (P08684 whole entry): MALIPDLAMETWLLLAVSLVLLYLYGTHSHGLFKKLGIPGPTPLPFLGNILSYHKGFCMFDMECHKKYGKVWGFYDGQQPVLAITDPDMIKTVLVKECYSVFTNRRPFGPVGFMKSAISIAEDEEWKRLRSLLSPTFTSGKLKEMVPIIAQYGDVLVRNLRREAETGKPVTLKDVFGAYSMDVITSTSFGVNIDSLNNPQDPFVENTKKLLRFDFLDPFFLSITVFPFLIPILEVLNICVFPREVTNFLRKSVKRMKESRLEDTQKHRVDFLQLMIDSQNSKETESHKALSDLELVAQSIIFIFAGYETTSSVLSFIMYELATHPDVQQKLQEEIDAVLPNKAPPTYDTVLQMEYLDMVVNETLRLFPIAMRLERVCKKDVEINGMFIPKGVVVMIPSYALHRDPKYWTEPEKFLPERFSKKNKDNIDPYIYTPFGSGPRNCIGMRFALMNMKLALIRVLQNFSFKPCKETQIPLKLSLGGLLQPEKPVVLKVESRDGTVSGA

CCN(CCO)CCCC(C)Nc1ccnc2cc(Cl)ccc12 (stereo not shown) [HCQ, hydroxychloroquine]
Inhibition of CYP2D6 metabolism in vivo (CYP2D6 [1]): not a clinically relevant CYP2D6 inhibitor; also recorded: did not inhibit
CYP2D6 inhibition in healthy volunteers (CYP2D6 [2]; interaction with metoprolol and dextromethorphan): weakly inhibits CYP2D6
Time until steady state is reached [3]: 4 months
CYP3A4 inhibition in vitro by parent drug (CYP3A4): did not support the hypothesis that the parent drug HCQ inhibits CYP3A4 activity
CYP2D6 inhibition in vitro (CYP2D6 [4]): competitively and reversibly inhibit CYP2D6 activity, albeit only mildly
Inhibition of CYP3A metabolism in vivo (CYP3A; single 400 mg HCQ, short term, midazolam probe): did not inhibit

COc1ccnc(C[S+]([O-])c2nc3ccc(OC(F)F)cc3[nH]2)c1OC (stereo not shown) [pantoprazole]
Reduction of CYP3A activity (recombinant human CYP3A4): 75%
Time to peak concentrations after oral administration [5]: 2 to 3 h
Peak serum concentration ([5]; converted from µg/ml): 6.5 µM
Peak serum concentration [5]: 2.5 µg/mL
Inhibition of CYP3A4-mediated midazolam metabolism in vitro (CYP3A4): inhibits CYP3A4-mediated midazolam metabolism at relatively high concentrations
Local concentration in the gut (CYP3A; 40 mg pantoprazole with approximately 200 ml of fluid, estimate): exceeded 500 µM

COc1ccc2c(c1)[C@]13CCCC[C@@H]1[C@H](C2)N(C)CC3 [dextromethorphan]
Change of urinary metabolic ratio of dextromethorphan (CYP2D6 [2]; after 8-day course of 400 mg HCQ twice daily): did not show any significant change

Cc1ncc2n1-c1ccc(Cl)cc1C(c1ccccc1F)=NC2 [midazolam]
Delay of peak plasma concentration vs fasting state ([6]; oral standard dose 1 h after a meal): 0.9 h
Oral bioavailability ([6]; therapeutic or microdoses): approximately 25%
Increase of midazolam AUC2–4 h vs baseline (CYP3A; [7]): 25%
Change of midazolam AUC2–4 h vs baseline (CYP3A; control subgroup, HCQ alone): no change
Midazolam/1-OH-midazolam AUC2–4 h ratio (CYP3A; after hydroxychloroquine plus pantoprazole): 3.60 ± 1.56
Midazolam/1-OH-midazolam AUC2–4 h ratio (CYP3A; baseline): 3.03 ± 1.59
Increase of midazolam AUC2–4 h vs baseline (CYP3A; [8]): 46%

COCCc1ccc(OCC(O)CNC(C)C)cc1 (stereo not shown) [metoprolol]
Increase of metoprolol AUC (CYP2D6 [2]; [9]): 65%
Increase of metoprolol Cmax (CYP2D6 [2]; [9]): 72%

OCc1ncc2n1-c1ccc(Cl)cc1C(c1ccccc1F)=NC2 [1-OH-midazolam, 1-hydroxy-midazolam]
Increase of 1-OH-midazolam AUC2–4 h vs baseline (CYP3A; [7]): 17%
Increase of 1-OH-midazolam AUC2–4 h vs baseline (CYP3A; [8]): 17.5%

CC(CCCNCCO)Nc1ccnc2cc(Cl)ccc12 (stereo not shown) [desethylhydroxychloroquine]
CYP3A4 inhibition in vitro (CYP3A4): time-dependent inhibitors of CYP3A4

CC(CCCN)Nc1ccnc2cc(Cl)ccc12 (stereo not shown) [didesethylchloroquine]
CYP3A4 inhibition in vitro (CYP3A4): time-dependent inhibitors of CYP3A4

CCNCCCC(C)Nc1ccnc2cc(Cl)ccc12 (stereo not shown) [desethylchloroquine]
CYP3A4 inhibition in vitro (CYP3A4): time-dependent inhibitors of CYP3A4
CYP2D6 inhibition in vitro (CYP2D6 [4]): competitively and reversibly inhibit CYP2D6 activity, albeit only mildly
